Measurements taken from patent US20130267474A1, “NOVEL PHYTOCHEMICALS FROM EXTRACTS OF MAPLE SYRUPS AND MAPLE TREES AND USES THEREOF” (UNIVERSITY OF RHODE ISLAND, priority 2010, published 2013).
Where two headings read alike, the source gives them in different places.

Experiments:
[1] = tested on: CCD-18Co (normal human colon fibroblasts); assay: MTS cytotoxicity / antiproliferative assay; assay type: cell-based; settings: Homo sapiens, CCD-18Co
Protocol: (§1) Cell lines included three human colon cancer cells: HT-29 (human colon adenocarcinoma), HCT116 (human colon carcinoma) and Caco-2 (human epithelial colorectal adenocarcinoma). In addition, normal human colon cells are included: CCD-^18Co (human colon fibroblasts). All cell lines are obtained from the American Type Culture Collection (ATCC, Rockville, Md., USA) and maintained at the University of Rhode Island.
(§2) The assay is carried out to measure the IC50 values for samples. […] Test samples and a positive control, etoposide 4 mg/mL (Sigma), are solubilized in DMSO by sonication. […] Control wells are also included on all plates. […] Each point on the curve is […]. Data (see tables 6 to 9) are expressed as mean±SE for three replications on each cell line.

[2] = tested on: Caco-2 (human epithelial colorectal adenocarcinoma); assay: MTS cytotoxicity / antiproliferative assay; assay type: cell-based; settings: Homo sapiens
Protocol: as §1, §2

[3] = tested on: HCT-116 (human colon carcinoma); assay: MTS cytotoxicity / antiproliferative assay; assay type: cell-based; settings: Homo sapiens
Protocol: as §1, §2

[4] = tested on: HT-29 (human colon adenocarcinoma); assay: MTS cytotoxicity / antiproliferative assay; assay type: cell-based; settings: Homo sapiens
Protocol: as §1, §2

CCD-18Co cells = assay: Flow cytometry analysis of cell cycle; assay type: cell-based, human; settings: 48 and 72 h
Protocol: (§3) (2×10^5) are collected after the corresponding experimental periods, fixed in ice-cold ethanol:PBS (70:30, v/v) for 30 min at 4° C., further resuspended in PBS with 100 μg ml^−1 RNAse and 40 μg ml^−1 propidium iodide, and then incubated at 37° C. for 30 min. The DNA content (10,000 cells) is analyzed using a FACS Calibur instrument equipped with FACStation running FACS Calibur software (BD Biosciences, San Diego, Calif., USA). The analyses of cell cycle distribution are performed in triplicate for each treatment (tested at 50 μg/mL concentrations). The coefficient of variation, according to the ModFit LT Version 2 acquisition software package (Verity Software House, Topsham, Me., USA), is always less than 5%.
as §3, with “Cells (2×10^5)” for “(2×10^5)”, “μg/mL” for “μg ml^−1”, “and” for “and then”, “min.” for “min. The”, “analysed” for “analyzed”, “treatment.” for “treatment (tested at 50 μg/mL concentrations).”

[5] = tested on: colon cancer (HCT-116, Caco-2 and HT-29) cell lines; assay: MTS antiproliferative assay, statements pooled over the colon cancer cell lines

COc1cc([C@@H]2c3cc4c(cc3[C@@H](O[C@@H]3O[C@@H]5CO[C@@H](C)O[C@H]5[C@H](O)[C@H]3O)[C@H]3COC(=O)[C@H]23)OCO4)cc(OC)c1O [Etoposide, reference compound] was tested, and the IC50 ([1]; 48 h, read-out: CCD-18Co 48 h (IC50), 48 h) was 48.7 µM, the IC50 ([1]; 48 h, read-out: CCD-18Co 48 h(IC50), Table 6 maple compounds, 48 h, unit inferred) was 45.1 µM and the IC50 ([1]; 72 h, Table 6 maple compounds, 72 h, unit inferred, read-out: CCD-18Co 72 h(IC50)) was 42.4 µM. It also gave an IC50 ([1]; 72 h, read-out: CCD-18Co 72 h (IC50)) of 43.9 µM, an IC50 ([1]; CCD-18Co cells, read-out: IC50 of positive control, MTS) of 40 to 45 µM and an IC50 ([1]; positive control, footnote of Table 16, read-out: IC50 for the CCD-18Co cells) of 30 to 40 µM. For the same compound, the IC50 ([2]; Caco-2, 48 h, read-out: Caco-2 48 h (IC50), 48 h) was 18.9 µM, the IC50 ([2]; Caco-2, 48 h, read-out: Caco-2 48 h(IC50), Table 6 maple compounds, 48 h, unit inferred) was 14.3 µM and the IC50 ([2]; Caco-2, 72 h, 72 h, read-out: Caco-2 72 h (IC50)) was 16.1 µM. It also gave an IC50 ([2]; Caco-2, 72 h, Table 6 maple compounds, 72 h, unit inferred, read-out: Caco-2 72 h(IC50)) of 12.3 µM, an IC50 ([2]; Caco-2, 72 h, Table 7 maple extracts, 72 h, unit inferred, read-out: Caco-2 72 h(IC50)) of 16.1 µM and an IC50 ([3]; HCT-116, 48 h, read-out: HCT-116 48 h (IC50), 48 h) of 26.9 µM. The IC50 ([3]; HCT-116, 48 h, read-out: HCT-116 48 h(IC50), Table 6 maple compounds, 48 h, unit inferred) was 28.5 µM, the IC50 ([3]; HCT-116, 72 h, 72 h, read-out: HCT-116 72 h (IC50)) was 14.4 µM and the IC50 ([3]; HCT-116, 72 h, Table 6 maple compounds, 72 h, unit inferred, read-out: HCT-116 72 h(IC50)) was 21.9 µM. For the same compound, the IC50 ([3]; HCT-116, 72 h, Table 7 maple extracts, 72 h, unit inferred, read-out: HCT-116 72 h(IC50)) was 14.4 µM, the IC50 ([4]; HT-29, 48 h, read-out: HT-29 48 h (IC50), 48 h) was 13.4 µM and the IC50 ([4]; HT-29, 48 h, read-out: HT-29 48 h(IC50), Table 6 maple compounds, 48 h, unit inferred) was 21.2 µM. The IC50 ([4]; HT-29, 48 h, read-out: HT-29 48 h(IC50), Table 7 maple extracts, 48 h, unit inferred) was 13.4 µM, the IC50 ([4]; HT-29, 72 h, 72 h, read-out: HT-29 72 h (IC50)) was 7.3 µM and the IC50 ([4]; HT-29, 72 h, Table 6 maple compounds, 72 h, unit inferred, read-out: HT-29 72 h(IC50)) was 12.9 µM. The IC50 ([4]; HT-29, 72 h, Table 7 maple extracts, 72 h, unit inferred, read-out: HT-29 72 h(IC50)) was 7.3 µM, the “changes in cell cycle compared with control cells” value (CCD-18Co cells) was “slight but significant changes in the S phase” and the IC50 ([5]; Homo sapiens, read-out: IC50 (HT29, HCT116 and Caco-2), positive control, footnote of Table 16) was 10 to 20 µM. For the same compound, the IC50 ([5]; Homo sapiens, read-out: IC50 of positive control, MTS, HT-29, HCT116 and Caco-2) was 15 to 25 µM and the IC50 ([5]; read-out: IC50 of positive control, MTS, HT-29, HCT116 and Caco-2) was 10 to 20 µM.
